Experimental data taken from patent publication EP0390602A1, “Neurotrophic peptides” (SUMITOMO PHARMACEUTICALS COMPANY, LIMITED, priority 1989, dated 1990).
Where “and” joins values, the source holds several entries; their conditions need not be identical. Equal values may be shown once. Where no end group is shown, it is not given here.

Test system: culture of rat medial septum nucleous
Test: Enhancing effect on acetylcholine synthesis in culture of rat medial septum nucleus (method of Ojika et al.)
Format: cell-based
Conditions: for Ash synthesis (%): Table 4, Concentration 1 x 10⁻⁸, control value as 100%, several single values per cell
Procedure: The neurotrophic peptide and its derivative of the present invention can regulate differentiation and maturation of neuronal cells. That is, the neurotrophic peptide and its derivative accelerate the acetylcholine synthesis in the tissue of medial septum nucleous which is rich in cholinergic neuron. The biological activity can be determined by the method of Ojika, K., et al. [Ojika, K., et al., Japanese Journal of Psycopharmacology, 7, 447-451, (1987)].
The peptides were assayed for a biological activity in accordance with the method of Ojika et al. [Japanese Journal of Psycopharmacology, 7, 447-451 (1987)]. Namely, medial septum nucleous removed from rat embryonal brain (16 day embryo) is cut to small pieces, then the pieces were cultured in the Bottenstein's modified N₂ medium containing 1% FCS of saturation concentration, in Falcon's 35 mm plastic culture dish with 7% CO₂ mixed air, at 36°C. The neurotrophic peptide or its derivative was added to the cultures at initial day. In a control group, no peptide is added. The neurotrophic peptide may be added to the culture at 3 days after the initial day. After 6 days culture, an acetylcholine synthesis activity of cultured tissue was assayed to determine the biological activity of the peptide. The acetylcholine synthesis activity was assayed as follows.
A cultured tissue was pre-incubated in high potasium Tyrode solution buffered with tris-HCl (pH 7.4) containing 98 mM of Nacl and 55 mM of Kcl , then incubated in a buffered solution containing 100 nM [³H] choline chloride (15 Ci/mmol) at 37°C for 30 minutes. After washing out of free [³H] choline, the tissue was dissolved in 1 N formic acid/acetone (15 : 85) solution. Free [³H] choline was converted to phosphocholine by choline kinase (0.1 unit/ml) and [³H] acetylcholine was extracted with tetraphenyl boron (5 mg/ml acetonitrile) to determine the acetylcholine synthesis activity. The activity of cultured tissue for synthesis of acetylcholine was defined as an amount of synthesized acetylcholine per piece of cultured tissue.

In the case of Ac-AADISQWAG-NH2 [Ac-HCNP(1-9)NH₂], the “Ash synthesis (%)” value is reported as 227% and 216%.

In the case of DISQWAG-NH2 [HCNP(3-9)NH₂], the “Ash synthesis (%)” value is reported as 224% and 138%.

For “H-AADISQWAGPL-OH [f-HCNP, H-Ala-Ala-Asp-Ile-Ser-Gln-Trp-Ala-Gly-Pro-Leu-OH]”, the Ach synthesis activity (Table 3, 2.5 pg/ml, 6 days culture, average value in triplet assay, Control 7.1 ± 1.1) was 11.3 ± 0.8 fmol/specimen and the “acetylcholine synthesis activity as compared with control culture” value (concentration of 2.5 pg/ml) was 159%.

“ISQWAGPL [HCNP(4-11)OH, Ile-Ser-Gln-Trp-Ala-Gly-Pro-Leu]” was tested, and the “Ash synthesis (%)” value was 160% and 139%.
